Data taken from US11771709B2, “ALK protein degradation agent and anti-tumor application thereof” (ShanghaiTech University, priority 2017, dated 2023).
Read-outs that look alike come from different tables or passages of the source. Each block holds one compound with its values, some of them ahead of it.

Legend:
SR (NPM-ALK) cells = assay: Growth inhibition IC50 in ALCL SR cells (CCK8/WST, 72 hours); type: cell-based; conditions: SR cells, WST
[1] = biological target: T1, ALK protein in H3122 (EML4-ALK) cells (Homo sapiens, UniProt Q9UM73); assay: Western blot of ALK protein level (degradation, DC50), ALK phosphorylation and downstream signaling in H3122 cells; type: cell-based; conditions: for ALK protein level / degradation: H3122 cells, western blot, up to 500 nM; for DC50: ALK protein degradation in H3122 cells
T1 construct: EML4 (Echinoderm microtubule-associated protein-like 4, Q9HC35) fusion partner, variant 1; host or cells: NCI-H3122 lung adenocarcinoma cells; the other entry of the earlier key: EML4 (Q9HC35, Echinoderm microtubule-associated protein-like 4)

[2] = biological target: T2, ALK protein in H3122 cells (Homo sapiens, UniProt Q9UM73); assay: ALK protein stability after stopping translation with cycloheximide in H3122 cells; type: cell-based; conditions: 0.5 uM compound, 1 ug/ml cycloheximide, 12 hours (Ceritinib), 7 hours (SIAIS074017)
T2 construct: EML4 (Echinoderm microtubule-associated protein-like 4, Q9HC35) fusion partner, variant 1; host or cells: NCI-H3122 lung adenocarcinoma cells; the other entry of the earlier key: EML4 (Q9HC35, Echinoderm microtubule-associated protein-like 4)
Experimental: The mechanism of PROTAD compound to degrade its target protein acts through recruiting E3 ubiquitining ligase to the proximity of its target protein, which leads to the target protein being highly ubiquitinzed and eventually being degraded. In order to see the mechanism of ALK PROTAD compounds we developed, we firstly examined the half-life of ALK protein. Because the total level of ALK protein was determined by both the translational activity and protein degradation, we used cyclohexmide to stop protein translation to examine the effect of ALK PROTAD compounds on ALK protein stabilities.
We listed data for Ceritinib-based ALK PROTAD compounds here as an example, and data for other ALK PROTAD compounds were tested in the same way and similar results were found. […] The difference at the total ALK protein level will reflect the different influence of drugs on protein stability.

[3] = test system: ALK positive non-small cell lung cancer; conditions: second line treatment (Shaw et al., 2017); cited from earlier work
[4] = test system: NCI-H3122 (EML4-ALK, V1) cells; assay: Growth inhibition IC50 in lung cancer H3122 cells (Cell Titer Blue / Cell Titer Glo)
[5] = test system: NCI-H2228 (EML4-ALK, V3) cells; assay: Growth inhibition IC50 in lung adenocarcinoma H2228 cells (WST); type: cell-based; conditions: Homo sapiens, WST (Table 3)
Source text: Experiments were repeated at least three times.
Besides above, we also tested the dosage-dependent effects on the growth inhibition in H2228 cells. […] (Table 3).

Ba/F3 (EML4-ALK/WT) = biological target: T3, Ba/F3 (EML4-ALK/WT) (Homo sapiens, UniProt Q9UM73); assay: Growth inhibition IC50 in Ba/F3 cells expressing EML4-ALK wild type; type: cell-based
T3 construct: Q9HC35 (Echinoderm microtubule-associated protein-like 4)

Ba/F3 (EML4-ALK/L1196M) = biological target: T4, Ba/F3 (EML4-ALK/L1196M) (Homo sapiens, UniProt Q9UM73, L1196M, cells depend on it); assay: Growth inhibition IC50 in Ba/F3 cells expressing EML4-ALK L1196M; type: cell-based
T4 construct: Q9HC35 (Echinoderm microtubule-associated protein-like 4)

Ba/F3 (EML4-ALK/C1156Y) = biological target: T5, Ba/F3 (EML4-ALK/C1156Y) (Homo sapiens, UniProt Q9UM73, C1156Y, cells depend on it); assay: Growth inhibition IC50 in Ba/F3 cells expressing EML4-ALK C1156Y; type: cell-based
T5 construct: Q9HC35 (Echinoderm microtubule-associated protein-like 4)

[6] = test system: PC9 (EGFR, exon 19 del) cells; assay: Growth inhibition IC50 in EGFR mutant lung adenocarcinoma PC9 cells; type: cell-based; conditions: Homo sapiens, PC-9; PC9 cells, CTB, n ≥ 3; read-out: Half Inhibitory Concentration (IC50) Mean
[7] = test system: PC9Brc1 (EGFR, exon 19 del+T790M) cells; assay: Growth inhibition IC50 in EGFR mutant lung cancer PC9Brc1 cells; type: cell-based; conditions: CTB, n ≥ 3, read-out: Half Inhibitory Concentration (IC50) Mean
[8] = test system: SW48 cell line (EGFR G719S); assay: Growth inhibition IC50 in EGFR G719S colorectal cancer cell line SW48; type: cell-based; conditions: Homo sapiens, CTG, n = 2, read-out: Half Inhibitory Concentration (IC50) Mean
[9] = test system: U118MG cells (FIG-ROS1 gene fusion); assay: Growth inhibition IC50 in ROS1 mutant glioblastoma cell line U118MG (72 hours); type: cell-based; conditions: Homo sapiens, U-118-MG; U118MG cells, 72 hours, n = 2, reagent CTG; read-out: Half Inhibitory Concentration (IC50) Mean
MOLM13 cells (FLT3-ITD) = assay: Growth inhibition IC50 in FLT3-ITD AML cell line MOLM13; type: cell-based; conditions: Homo sapiens, MOLM-13, MOLM13 cells
[10] = biological target: T6, ALK protein in SR (NPM-ALK) cells (Homo sapiens, UniProt Q9UM73); assay: Western blot of ALK protein level (degradation, DC50), ALK phosphorylation and downstream signaling in SR cells; type: cell-based
T6 construct: NPM (nucleophosmin, NPM1, P06748) fusion partner; host or cells: SR (ALCL) cells; the other entry of the earlier key: NPM1 (P06748, Nucleophosmin)

[11] = test system: ALK protein in H2228 (EML4-ALK) cells; assay: Western blot of ALK protein level, ALK phosphorylation and downstream signaling in H2228 cells; type: cell-based
Experimental: Cancer cells were seeded in 1 ml RPMI1640 medium in 24-well plate at the density of 3×10^5 or 1.5×10^5 cells/ml. The next day cells were treated with different concentration of drugs for 16 hours. Then cells were washed twice with PBS and lyzed in RIPA lysis buffer with Halt Proteinase and Phosphotase inhibitor. Equal amount of proteins were loaded to run SDS-PAGE gels after denature. The gels were blotted to PVDF membrane. After incubating with first and secondary antibodies, the images were developed using SuperSignal West Pico Chemiluminescent Substrate.
The effect of Brigtinib based PROTAD molecules on the ALK protein total level were studied by western blot in ALCL SR (NPM-ALK) cell line and lung adenocarcinoma cell line H2228 and H3122 (EML4-ALK).
The effects of compounds SIAIS164008 and SIAIS164018 of the present invention on the activation of ALK mediated signaling pathways were also studied in SR cells and H2228 cells. […] The overall effect of compound of SIAIS164018 was better than that of SIAIS164008.

ALK protein in SR cells = biological target: T7, ALK protein in SR cells (Homo sapiens, UniProt Q9UM73); assay: Block of ALK degradation by proteosome inhibitors MG132 and MLN4924 in SR cells; type: cell-based
T7 construct: NPM (nucleophosmin, NPM1, P06748) fusion partner; host or cells: SR (ALCL) cells; the other entry of the earlier key: NPM1 (P06748, Nucleophosmin)
Source text: To further validate the degradation effect act through proteosome mediated pathway, we also treated cells with two different proteosome inhibitors MG132 and MLN4924 to block protein degradation (FIG. 16).

H2228 cells (EML4-ALK) = assay: Colony formation assay in H2228 cells; type: cell-based; conditions: about 2 weeks
Experimental: (§1) Cell were digested to become single cell suspension. Cells were seeded in the intensity of 250 cells/well in 12 well plate. Treated cells at the concentration of 100, 250, 500 nM. Fixed cells 2-3 weeks after and stained cells with crystyl violate.
In order to see the effect of ALK PROTAD compounds on the colony formation ability of cancer cells, EML4-ALK mutant lung cancer cells H2228 were firstly seeded in 12 well plate at the density of 200 cells per well. Cells were treated with different ALK PROTAD compounds at different concentration for about 2 weeks.

[12] = Pharmacokinetics (PK) study in SD rat (IV, IP, PO; LC-MS/MS); type: in vivo; conditions: Sprague-Dawley, serum
Experimental: SD rat were used to study the PK of ALK PROTAD compounds. ALK PROTAD compounds SIAIS164008, SIAIS164018, SIAIS164023 and SIAIS151118 were administrated into SD rat via three different routes: IV (Intravenous Injection), IP (Intraperitoneal Injection) and PO ([…]). Blood samples at different sampling time points up to 24 hours post dosing were collected from each animal and analyzed with LC-MS/MS to calculate the PK for each chemical.

PC9Brc1 cells = assay: Colony formation assay in PC9Brc1 cells; type: cell-based; conditions: PC9 Brc1 cells
Experimental: as §1
ALK PROTAD compound SIAIS1210117 and its negative control epimer SIAIS219050 were used.

[13] = Ceritinib based ALK PROTAD compounds (Table 5)

ALK protein level / degradation [1]: did not affect ALK protein level
ALK protein level after stop of translation (protein stability) [2]: did not show much difference
IC50 ([4]; H3122 cells, CTB (Cell Titer Blue)): 14 nM
IC50 ([4]; H3122 cells, CTG (Cell Titer Glo)): 44 nM
Compound: Cc1cc(Nc2ncc(Cl)c(Nc3ccccc3S(=O)(=O)C(C)C)n2)c(OC(C)C)cc1C1CCNCC1 [Ceritinib, reference compound]
IC50 (SR (NPM-ALK) cells; [13]): 16 nM
increase of progression free survival comparing to second line chemotherapy [3]: about 4 months

DC50 [1]: 100 to 500 nM
ALK protein level after stop of translation (protein stability) [2]: significantly reduced ALK protein level
IC50 ([4]; Homo sapiens, NCI-H3122, H3122 cells, CTB (Cell Titer Blue)): 45 nM
IC50 ([4]; Homo sapiens, NCI-H3122, H3122 cells, CTG (Cell Titer Glo)): 41 nM
Compound: Cc1cc(Nc2ncc(Cl)c(Nc3ccccc3S(=O)(=O)C(C)C)n2)c(OC(C)C)cc1C1CCN(C(=O)CCC(=O)N[C@H](C(=O)N2C[C@H](O)C[C@H]2C(=O)NCc2ccc(-c3scnc3C)cc2)C(C)(C)C)CC1 [SIAIS074017, (2S,4R)-1-((S)-2-(4-(4-(4-((5-chloro-4-((2-(isopropylsulfonyl)phenyl)amino)pyrimidin-2-yl)amino)-5-isopropoxy-2-methylphenyl)piperidin-1-yl)-4-oxobutanamido)-3,3-dimethylbutanoyl)-4-hydroxy-N-(4-(4-methylthiazol-5-yl)benzyl)pyrrolidine-2-carboxamide]
IC50 (SR (NPM-ALK) cells; [13]): 116 nM

IC50 [5]: 17.9 nM
GI50 (Ba/F3 (EML4-ALK/WT)): 30.9 nM
GI50 (Ba/F3 (EML4-ALK/L1196M)): 57.4 nM
GI50 (Ba/F3 (EML4-ALK/C1156Y)): 42.7 nM
IC50 [6]: 150 nM
IC50 [7]: 900 nM
IC50 [8]: 2760 nM
IC50 [9]: 16900 nM
IC50 (MOLM13 cells (FLT3-ITD); n = 2, reagent CTG, read-out: Half Inhibitory Concentration (IC50) Mean): 79 nM
IC50 (MOLM13 cells (FLT3-ITD); read-out: IC50): 79 nM
DC50 ([10]; ALK protein degradation in SR cells): 0.5 to 1 nM
concentration at which ALK proteins were degraded ([10]; SR cells, western blot): less than 1 nM
concentration inhibiting the phosphorylation of ALK proteins ([10]; SR cells, western blot): 0.1 nM
downstream signaling pathway (PI3K/AKT, MEK/ERK and STAT3) ([10]; SR cells, western blot): significantly inhibited
DC50 [1]: 1 to 10 nM
ALK protein level / degradation [1]: a similar effects was observed
reduction of ALK protein level and its block by MG132 and MLN4924 (ALK protein in SR cells): able to be blocked
bioavailability ([12]; IP, 2 mg/kg): 157%
half-life ([12]; IP, 2 mg/kg, read-out: serum half-life (converted)): 3.65 h
Tmax ([12]; IP, 2 mg/kg, read-out: time to maximal serum peak level (Tmax)): ~2.67 h
clearance ([12]; IV, single dose 2 mg/kg, read-out: clearance rate, mean value): ~22.6 mL/min/kg
half-life ([12]; IV, single dose 2 mg/kg, read-out: serum clearance half-life (converted)): ~4.65 h
bioavailability ([12]; PO, 10 mg/kg): 18.4%
Tmax ([12]; PO, 10 mg/kg, read-out: Tmax): 2 h
half-life ([12]; PO, 10 mg/kg, read-out: serum half-life (converted)): 7.09 h
Compound: COc1cc(N2CCC(N3CCN(C(=O)CNc4cccc5c4C(=O)N(C4CCC(=O)NC4=O)C5=O)CC3)CC2)ccc1Nc1ncc(Cl)c(Nc2ccccc2P(C)(C)=O)n1 (stereo not shown) [SIAIS164018, 4-((2-(4-(1-(4-((5-chloro-4-((2-(dimethylphosphoryl)phenyl)amino)pyrimidin-2-yl)amino)-3-methoxyphenyl)piperidin-4-yl)piperazin-1-yl)-2-oxoethyl)amino)-2-(2,6-dioxopiperidin-3-yl)isoindoline-1,3-dione]
IC50 (SR (NPM-ALK) cells; 72 h, Brigatinib-based PROTAD molecules (Table 3)): 2 ± 1.4 nM
ALK protein degradation ([10]; SR cells, western blot, 16 hours, up to 500 nM): effectively degrade ALK proteins at nano mole concentration
phosphorylation of ALK protein and activation of PI3K/AKT pathway [11]: inhibited
colony formation (H2228 cells (EML4-ALK)): dramatically inhibited

reduction of ALK protein level and its block by MG132 and MLN4924 (ALK protein in SR cells): did not have such effect
Compound: COc1cc(N2CCC(NC(=O)CCCCCCCCCC(=O)N[C@H](C(=O)N3C[C@@H](O)C[C@H]3C(=O)NCc3ccc(-c4scnc4C)cc3)C(C)(C)C)CC2)ccc1Nc1ncc(Cl)c(Nc2ccccc2P(C)(C)=O)n1 [SIAIS219050, N1-(1-(4-((5-chloro-4-((2-(dimethylphosphoryl)phenyl)amino)pyrimidin-2-yl)amino)-3-methoxyphenyl)piperidin-4-yl)-N11-((S)-1-((2S,4S)-4-hydroxy-2-((4-(4-methylthiazol-5-yl)benzyl)carbamoyl)pyrrolidin-1-yl)-3,3-dimethyl-1-oxobutan-2-yl)undecanediamide]
ALK protein degradation within a time course ([10]; SR cells, 100 nM, 4 hours (SIAIS1210117), up to 24 hours (epimer)): did not induce degradation of ALK protein
colony formation (PC9Brc1 cells): could not
